Reference: patent publication US12398154B2, “Azaquinazoline pan-KRas inhibitors” (Mirati Therapeutics, Inc., priority 2020, dated 2025)

Assays:
KRas G12V = KRas G12V (Homo sapiens, UniProt P01116, G12V); assay: biochemical;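 note: KRas binding measured by TR-FRET displacement at room temperature, IC50 fitted from percent of control values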
Experimental: (§1) The ability of a compound to bind to KRas was measured using a TR-FRET displacement assay. […] After a 60-minute incubation at room temperature, the reaction was measured using a BMG LABTECH CLARIO star Plus via TR-FRET. […] The POC values were fit to a 4-parameter IC50 equation and the IC50 value reported.

KRas G12D = KRas G12D (Homo sapiens, UniProt P01116, G12D); assay: biochemical;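 note: TR-FRET displacement binding assay on KRas, read after a one-hour incubation at room temperature, IC50 fitted from percent-of-control values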
Sequence of KRas G12D (P01116 1-169 isoform P01116-2 G12D): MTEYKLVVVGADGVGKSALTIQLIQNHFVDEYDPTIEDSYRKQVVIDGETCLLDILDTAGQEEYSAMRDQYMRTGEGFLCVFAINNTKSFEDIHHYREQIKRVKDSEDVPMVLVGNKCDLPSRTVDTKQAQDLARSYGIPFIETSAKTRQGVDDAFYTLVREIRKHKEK
Experimental: as §1

pERK in PSN1 cells = assay: Inhibition of KRas phosphorylation of ERK (Cisbio HTRF pERK assay); details: Homo sapiens, PSN1, 3 h, read-out: Inhibition (HTRF IC50) of KRas-mediated Phosphorylation of ERK, PSN1
Experimental: (§2) To harvest cells from flask using 0.05% Trypsin/EDTA solution. Add 10 mL of media to stop trypsinizing. Pipette the cells into a conical bottom 50 mL centrifuge tube and centrifuge 5 min×1000 rpm. • 2. Re-suspend the cell pellet in media, take a cell count, and then adjust the cell density using fresh media. • 3. Seed 6,000 cells into cell culture plate with 50 μL media. […] Incubate cell plate overnight in a 37° C., 5% CO2 incubator. • Compound titrations • 1. Use Tecan to complete the compound addition. Compounds start from 10 uM top, 3-fold dilution, and 10 doses. The final DMSO concentration is 0.8%. Dispensed 0.2 uM Trametinib as Min control. • 2. Incubate cell plate for 3 hrs in the incubator. • Detection with cisbio pERK HTRF kit • 1. […] At the end of the compound treatment, flick-off the media. • 3. Add 35 μL of lysis buffer per well using a Multidrop Combi. Then place on a plate agitator shaking at 300 rpm at 4° C. for 40 mins. • 4. Make up the HTRF antibody buffer. For each assay plate, mix 50 μL of d2-conjugate antibody with 950 μL of detection buffer. Similarly, mix 50 μL of Cryptate antibody with 950 μL of detection buffer. Then mix the two diluted antibodies together. • 5. Dispense 3.4 μL the antibody buffer to wells of an empty assay plate. Seal the plate and centrifuge plate 30 sec×1000 rpm. • 6. At the end of the 4° C. lysis, centrifuge the lysate plates 3 mins×1500 rpm. • 7. Use the Bravo to transfer 13.6 μL of lysate from cell culture plate to assay plate.
(§3) Then incubate assay plate for 2 hrs at room temperature. […] At the end of incubation, read plate on the Envision after centrifuging plate 30 sec× • 1000 rpm.

KRas G12R = KRas G12R (Homo sapiens, UniProt P01116, G12R); assay: biochemical;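 note: TR-FRET displacement assay of compound binding to KRas, read after one hour at room temperature, potency from a four-parameter fit of percent-of-control values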
Sequence of KRas G12R (P01116 1-169 isoform P01116-2 G12R): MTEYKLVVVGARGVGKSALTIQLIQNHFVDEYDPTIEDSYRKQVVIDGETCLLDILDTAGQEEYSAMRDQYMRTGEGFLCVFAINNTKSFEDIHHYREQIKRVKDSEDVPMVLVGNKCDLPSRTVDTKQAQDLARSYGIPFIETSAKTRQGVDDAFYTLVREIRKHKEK
Experimental: as §1

pERK in HCT116 cells = assay: Inhibition of KRas phosphorylation of ERK (Cisbio HTRF pERK assay); details: Homo sapiens, HCT-116, read-out: Inhibition (HTRF IC50) of KRas-mediated Phosphorylation of ERK, HCT116
pERK in H727 cells = assay: as above; details: Homo sapiens, NCI-H727, read-out: Inhibition (HTRF IC50) of KRas-mediated Phosphorylation of ERK, H727
Experimental: as §2, §3

pERK in ASPC1 cells = assay: as above; details: Homo sapiens, ASPC1, read-out: Inhibition (HTRF IC50) of KRas-mediated Phosphorylation of ERK, AsPC-1
pERK in MKN1 cells = assay: as above; details: Homo sapiens, MKN-1, 3 h, read-out: Inhibition (HTRF IC50) of KRas-mediated Phosphorylation of ERK, MKN1

Sequence of KRas G12V (P01116 1-169 isoform P01116-2 G12V): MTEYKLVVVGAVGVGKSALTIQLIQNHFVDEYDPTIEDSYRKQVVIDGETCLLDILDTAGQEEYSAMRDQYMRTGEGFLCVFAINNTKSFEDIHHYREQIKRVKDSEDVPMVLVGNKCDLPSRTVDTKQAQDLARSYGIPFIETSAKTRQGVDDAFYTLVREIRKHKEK

SMILES	IC50 (KRas G12V) [nM]	IC50 (KRas G12D) [nM]	IC50 (pERK in PSN1 cells) [nM]	IC50 (KRas G12R) [nM]	IC50 (pERK in HCT116 cells) [nM]	IC50 (pERK in H727 cells) [nM]	IC50 (pERK in ASPC1 cells) [nM]	IC50 (pERK in MKN1 cells) [nM]
CCc1c(F)ccc2cc(O)cc(-c3ncc4c(N5CCCn6nc(C(=O)N(C)C)cc6C5)nc(OCC5(CN(C)C)CC5)nc4c3F)c12 [Example 333, 5-(2-((1-((dimethylamino)methyl)cyclopropyl)methoxy)-7-(8-ethyl-7-fluoro-3-hydroxynaphthalen-1-yl)-8-fluoropyrido[4,3-d]pyrimidin-4-yl)-N,N-dimethyl-5,6,7,8-tetrahydro-4H-pyrazolo[1,5-a][1,4]diazepine-2-carboxamide]	≤ 2	≤ 2	≥ 10000	5	9190	2110	603	425
CCc1c(F)ccc2cc(O)cc(-c3ncc4c(N5CCOCC6(C5)NC(=O)NC6=O)nc(OC[C@@]56CCCN5C[C@H](F)C6)nc4c3F)c12 (stereo partly drawn) [Example 337, 10-(7-(8-ethyl-7-fluoro-3-hydroxynaphthalen-1-yl)-8-fluoro-2-(((2R,7aS)-2-fluorohexahydro-1H-pyrrolizin-7a-yl)methoxy)pyrido[4,3-d]pyrimidin-4-yl)-7-oxa-1,3,10-triazaspiro[4.6]undecane-2,4-dione]	3	3	1840	5	438	395	514	49
CCc1c(F)ccc2cc(O)cc(-c3ncc4c(N5CCCCC6(C5)NC(=O)NC6=O)nc(OC[C@@]56CCCN5C[C@H](F)C6)nc4c3F)c12 (stereo partly drawn) [Example 338, 7-(7-(8-ethyl-7-fluoro-3-hydroxynaphthalen-1-yl)-8-fluoro-2-(((2R,7aS)-2-fluorotetrahydro-1H-pyrrolizin-7a(5H)-yl)methoxy)pyrido[4,3-d]pyrimidin-4-yl)-1,3,7-triazaspiro[4.6]undecane-2,4-dione]	3	≤ 2	2880	4	487	377	695	24
CCc1c(F)ccc2cc(O)cc(-c3ncc4c(N5CCCn6nc(CO)cc6C5)nc(OC[C@@]56CCCN5C[C@H](F)C6)nc4c3F)c12 [Example 341, 5-ethyl-6-fluoro-4-(8-fluoro-2-(((2R,7aS)-2-fluorohexahydro-1H-pyrrolizin-7a-yl)methoxy)-4-(2-(hydroxymethyl)-7,8-dihydro-4H-pyrazolo[1,5-a][1,4]diazepin-5(6H)-yl)pyrido[4,3-d]pyrimidin-7-yl)naphthalen-2-ol]	3	≤ 2	≥ 10000	≤ 2	1320	1040	472	86
CCc1c(F)ccc2cc(O)cc(-c3ncc4c(N5CCCC(N6CCCS6(=O)=O)C5)nc(OC[C@@]56CCCN5C[C@H](F)C6)nc4c3F)c12 (stereo partly drawn) [Example 348, 2-(1-(7-(8-ethyl-7-fluoro-3-hydroxynaphthalen-1-yl)-8-fluoro-2-(((2R,7aS)-2-fluorotetrahydro-1H-pyrrolizin-7a(5H)-yl)methoxy)pyrido[4,3-d]pyrimidin-4-yl)piperidin-3-yl)isothiazolidine 1,1-dioxide]	3	6	≥ 10000	≤ 2	245	273	275	7
CCc1c(F)ccc2cc(O)cc(-c3ncc4c(NC5CCS(=O)(=O)C5)nc(OC[C@@]56CCCN5C[C@H](F)C6)nc4c3F)c12 (stereo partly drawn) [Example 349, 3-((7-(8-ethyl-7-fluoro-3-hydroxynaphthalen-1-yl)-8-fluoro-2-(((2R,7aS)-2-fluorotetrahydro-1H-pyrrolizin-7a(5H)-yl)methoxy)pyrido[4,3-d]pyrimidin-4-yl)amino)tetrahydrothiophene 1,1-dioxide]	4	20	≥ 10000	7	2250	1860	475	149
